Reference: patent US20250170248A1, “SMARCA DEGRADERS AND USES THEREOF” (Kymera Therapeutics, Inc., priority 2021, published 2025)

Legend:
Assay type in all cases: cell-based
SMARCA2 [1] = target: T1, SMARCA2 (Homo sapiens, UniProt P51531); assay: SMARCA2 Western blot degradation in MV4-11 cells; design: SMARCA2/SMARCA4 protein degradation selectivity in MV4-11 cells; endogenous in cells; host or cells: MV4-11; conditions: for Dmax: MV4-11, MV4-11 cells, read-out: SMARCA2 MSD MV411 degradation 24 h: average Dmax %; for DC50: read-out: SMARCA2 MSD MV411 degradation 24 h: Mean external-Abs DC50; for Selectivity in MV411: SMARCA2/4 selectivity
SMARCA4 = target: T2, SMARCA4 (Homo sapiens, UniProt P51532); assay: SMARCA4 Western blot degradation in MV4-11 cells; conditions: for Dmax: MV4-11, MV4-11 cells, read-out: SMARCA4 MSD MV411 degradation 24 h: average Dmax %; for Dmax / DC50: 24 h; for DC50: read-out: SMARCA4 MSD MV411 degradation 24 h: Mean external-Abs DC50
T2 construct: SMARCA2/SMARCA4 protein degradation selectivity in MV4-11 cells; endogenous in cells; host or cells: MV4-11
Method in brief: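 24 h compound exposure, MV4-11; RIPA lysates → SDS-PAGE → NC membrane; anti-SMARCA2/BRM, anti-BRG1, β-actin loading control; LI-COR fluorescence read. DC50 and Dmax at 24 h reported as letter bins.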

SMARCA2 [2] = target: T1, SMARCA2; assay: MSD SMARCA2 degradation in A549 cell line; conditions: for Dmax: A549, A549 cells; for Dmax / DC50: 24 h; for DC50: read-out: SMARCA2 MSD A549 degradation 24 h: Average external-Abs DC50
Method in brief: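 A549 cells treated 24 h with compound, 3-fold series from 1000 nM. Lysates captured on MSD plates and SMARCA2 quantified with anti-SMARCA2 and SULFO-TAG secondary antibodies (electrochemiluminescence). DC50 and Dmax (% degradation at 24 h) reported as letter bins.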

T2 sequence (P51532 whole entry): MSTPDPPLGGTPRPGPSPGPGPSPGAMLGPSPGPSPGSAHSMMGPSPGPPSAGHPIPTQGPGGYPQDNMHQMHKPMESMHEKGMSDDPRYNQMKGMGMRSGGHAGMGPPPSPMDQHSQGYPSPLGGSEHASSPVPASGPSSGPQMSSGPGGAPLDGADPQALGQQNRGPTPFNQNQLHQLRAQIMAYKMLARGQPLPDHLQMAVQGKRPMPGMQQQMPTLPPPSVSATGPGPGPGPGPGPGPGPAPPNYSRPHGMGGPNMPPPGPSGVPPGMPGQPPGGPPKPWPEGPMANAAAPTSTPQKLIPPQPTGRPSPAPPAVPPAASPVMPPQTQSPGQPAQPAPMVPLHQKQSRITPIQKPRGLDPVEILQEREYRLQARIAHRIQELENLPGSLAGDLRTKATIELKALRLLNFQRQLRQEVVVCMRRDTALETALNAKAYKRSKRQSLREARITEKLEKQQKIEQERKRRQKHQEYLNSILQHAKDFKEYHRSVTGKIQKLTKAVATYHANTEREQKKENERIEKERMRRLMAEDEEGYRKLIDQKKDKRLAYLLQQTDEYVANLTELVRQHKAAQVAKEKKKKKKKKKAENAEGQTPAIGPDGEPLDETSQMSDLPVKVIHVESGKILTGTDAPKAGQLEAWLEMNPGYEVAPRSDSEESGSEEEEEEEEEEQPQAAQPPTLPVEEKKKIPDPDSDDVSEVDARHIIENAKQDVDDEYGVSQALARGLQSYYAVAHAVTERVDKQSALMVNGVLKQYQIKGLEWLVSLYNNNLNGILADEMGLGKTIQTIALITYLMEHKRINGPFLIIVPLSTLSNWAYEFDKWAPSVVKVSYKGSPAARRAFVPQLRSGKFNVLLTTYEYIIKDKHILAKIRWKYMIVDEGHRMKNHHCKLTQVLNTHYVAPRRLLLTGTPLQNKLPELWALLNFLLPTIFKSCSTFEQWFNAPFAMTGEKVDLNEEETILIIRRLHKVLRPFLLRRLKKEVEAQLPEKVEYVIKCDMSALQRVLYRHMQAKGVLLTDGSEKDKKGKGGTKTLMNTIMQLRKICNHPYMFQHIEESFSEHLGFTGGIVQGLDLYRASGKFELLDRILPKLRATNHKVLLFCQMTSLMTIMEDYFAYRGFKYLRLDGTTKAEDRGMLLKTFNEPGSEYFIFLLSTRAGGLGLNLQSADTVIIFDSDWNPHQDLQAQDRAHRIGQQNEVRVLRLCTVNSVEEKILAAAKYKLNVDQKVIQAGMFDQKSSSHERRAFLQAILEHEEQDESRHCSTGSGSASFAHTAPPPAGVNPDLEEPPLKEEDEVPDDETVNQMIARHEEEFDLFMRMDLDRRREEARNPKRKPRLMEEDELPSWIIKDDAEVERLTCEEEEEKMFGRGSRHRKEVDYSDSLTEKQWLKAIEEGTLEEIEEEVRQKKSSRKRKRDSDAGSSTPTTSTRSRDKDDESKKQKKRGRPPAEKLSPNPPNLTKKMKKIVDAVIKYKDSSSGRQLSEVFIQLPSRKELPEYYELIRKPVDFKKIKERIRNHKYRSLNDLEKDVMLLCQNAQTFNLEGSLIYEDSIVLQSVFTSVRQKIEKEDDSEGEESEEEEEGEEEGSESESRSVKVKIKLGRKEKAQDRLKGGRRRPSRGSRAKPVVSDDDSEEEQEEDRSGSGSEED
T1 sequence (P51531 whole entry): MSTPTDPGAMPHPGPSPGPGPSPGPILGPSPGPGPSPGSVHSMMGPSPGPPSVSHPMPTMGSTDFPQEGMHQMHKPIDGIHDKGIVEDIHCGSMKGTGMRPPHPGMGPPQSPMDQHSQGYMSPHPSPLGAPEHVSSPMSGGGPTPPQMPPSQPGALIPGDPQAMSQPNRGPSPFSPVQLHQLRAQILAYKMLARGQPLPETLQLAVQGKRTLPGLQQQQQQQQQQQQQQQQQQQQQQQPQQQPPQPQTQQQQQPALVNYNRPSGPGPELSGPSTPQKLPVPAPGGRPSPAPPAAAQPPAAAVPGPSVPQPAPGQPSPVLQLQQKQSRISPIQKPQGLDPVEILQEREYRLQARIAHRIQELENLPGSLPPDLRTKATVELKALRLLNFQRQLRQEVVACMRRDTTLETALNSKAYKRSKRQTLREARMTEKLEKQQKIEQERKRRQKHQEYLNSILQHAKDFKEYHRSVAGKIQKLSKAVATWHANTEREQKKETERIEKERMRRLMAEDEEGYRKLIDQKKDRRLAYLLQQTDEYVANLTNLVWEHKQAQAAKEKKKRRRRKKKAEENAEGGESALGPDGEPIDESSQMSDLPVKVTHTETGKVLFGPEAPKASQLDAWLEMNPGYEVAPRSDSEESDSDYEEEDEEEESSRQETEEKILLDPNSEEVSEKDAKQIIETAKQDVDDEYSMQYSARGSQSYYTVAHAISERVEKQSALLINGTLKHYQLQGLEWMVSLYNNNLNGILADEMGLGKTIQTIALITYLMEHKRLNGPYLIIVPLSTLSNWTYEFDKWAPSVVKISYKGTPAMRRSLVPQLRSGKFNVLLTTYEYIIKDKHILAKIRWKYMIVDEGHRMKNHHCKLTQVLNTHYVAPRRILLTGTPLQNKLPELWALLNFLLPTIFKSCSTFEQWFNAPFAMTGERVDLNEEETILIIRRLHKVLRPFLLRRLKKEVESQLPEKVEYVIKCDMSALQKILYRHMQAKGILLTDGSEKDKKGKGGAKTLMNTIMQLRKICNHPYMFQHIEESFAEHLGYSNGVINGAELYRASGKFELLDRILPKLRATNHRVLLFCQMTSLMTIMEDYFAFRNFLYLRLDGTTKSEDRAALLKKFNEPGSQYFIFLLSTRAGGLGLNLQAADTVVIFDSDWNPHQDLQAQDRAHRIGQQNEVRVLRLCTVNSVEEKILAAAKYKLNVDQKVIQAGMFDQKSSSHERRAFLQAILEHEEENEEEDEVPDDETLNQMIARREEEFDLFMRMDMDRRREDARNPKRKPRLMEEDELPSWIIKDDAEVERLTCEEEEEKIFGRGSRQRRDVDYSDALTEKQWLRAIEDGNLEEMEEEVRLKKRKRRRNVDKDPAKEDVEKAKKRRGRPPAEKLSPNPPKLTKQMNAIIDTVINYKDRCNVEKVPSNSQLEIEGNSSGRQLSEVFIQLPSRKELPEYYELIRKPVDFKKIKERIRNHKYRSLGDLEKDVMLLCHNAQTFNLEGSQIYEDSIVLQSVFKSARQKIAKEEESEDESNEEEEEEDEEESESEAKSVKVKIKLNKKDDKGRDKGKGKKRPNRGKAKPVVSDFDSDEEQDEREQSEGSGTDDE

| Compound | Dmax (SMARCA2 [1]; 24 h) [%] | DC50 (SMARCA2 [1]; MV4-11 cells, 24 h) [nM] | Selectivity in MV411 (SMARCA2 [1]; MV4-11 cells) | Dmax (SMARCA4) [%] | DC50 (SMARCA4; MV4-11 cells) [nM] | Dmax (SMARCA2 [2]) [%] | DC50 (SMARCA2 [2]; A549 cells) [nM] | SMARCA2 MSD MV411 degradation 24 h: average Dmax % (SMARCA2 [1]; MV4-11 cells, 24 h) | SMARCA4 MSD MV411 degradation 24 h: average Dmax % (SMARCA4; MV4-11 cells) | SMARCA2 MSD A549 degradation 24 h: Average Dmax % (SMARCA2 [2]; A549 cells) |
| --- | --- | --- | --- | --- | --- | --- | --- | --- | --- | --- |
| C#Cc1ccc([C@H](C)NC(=O)[C@@H]2C[C@@H](O)CN2C(=O)[C@@H](NC(=O)[C@H]2CC3(C2)C[C@H](N2CCC(N4CCC(N5CCN6c7cc(-c8ccccc8O)nnc7NC[C@H]6C5)CC4)CC2)C3)C(C)(C)C)cc1 (single isomer, unassigned) [I-213] | 70 to 90 | 1 to 10 | B (B (>100-500 fold)) | < 50 | > 100 | > 90 | > 100 | – | – | – |
| C#Cc1ccc(CNC(=O)[C@@H]2C[C@@H](O)CN2C(=O)[C@@H](NC(=O)N2CCN(C[C@H]3CC[C@@H](N4CCc5[nH]c6nnc(-c7ccccc7O)cc6c5[C@H]4C)CC3)CC2)C(C)(C)C)cc1 [I-199] | 50 to 70 | 10 to 100 | C (C (10-100 fold)) | < 50 | > 100 | > 90 | > 100 | – | – | – |
| C#Cc1ccc(CNC(=O)[C@@H]2C[C@@H](O)CN2C(=O)[C@@H](NC(=O)CCCN2CCC(N3CC4(CC(N5CCN6c7cc(-c8ccccc8O)nnc7NC[C@H]6C5)C4)C3)CC2)C(C)(C)C)cc1 (single isomer, unassigned) [I-244] | > 90 | 10 to 100 | C (C (10-100 fold)) | 50 to 70 | > 100 | > 90 | > 100 | – | – | – |
| CC(C)(C)[C@H](NC(=O)[C@H]1CCC2(CC1)C[C@H](N1CCC(c3cnc(N4CCN5c6cc(-c7ccccc7O)nnc6NC[C@H]5C4)nc3)CC1)C2)C(=O)N1C[C@H](O)C[C@H]1C(=O)NCC#Cc1ccc(Cl)cc1 (single isomer, unassigned) [I-114] | – | > 100 | C (C (10-100 fold)) | – | > 100 | – | > 100 | D (D (<50% degradation)) | D (D (<50% degradation)) | D (D (<50% degradation)) |
| Cc1ncsc1-c1ccc(CNC(=O)[C@@H]2C[C@@H](O)CN2C(=O)C(c2cc(OC[C@H]3CC[C@@H](N4CCC(c5cnc(N6CCc7[nH]c8nnc(-c9ccccc9O)cc8c7[C@H]6C)nc5)CC4)CC3)no2)C(C)C)cc1 (single isomer, unassigned) [I-2] | > 90 | 1 to 10 | D (D (<10 fold)) | > 90 | 10 to 100 | 70 to 90 | 10 to 50 | – | – | – |
| C#Cc1ccc(CNC(=O)[C@@H]2C[C@@H](O)CN2C(=O)[C@@H](NC(=O)C2CC3(C2)CC(N2CCC(N4CCC(N5CCN6c7cc(-c8ccccc8O)nnc7NC[C@H]6C5)CC4)CC2)C3)C(C)(C)C)cc1 (stereo partly drawn) [I-137] | 70 to 90 | 1 to 10 | A (A (>500 fold)) | < 50 | > 100 | > 90 | 50 to 100 | – | – | – |
| C#Cc1ccc([C@H](C)NC(=O)[C@@H]2C[C@@H](O)CN2C(=O)[C@@H](NC(=O)N2CC3(CC(N4CCC(N5CCC(N6CCc7[nH]c8nnc(-c9ccccc9O)cc8c7[C@H]6C)CC5)CC4)C3)C2)C(C)(C)C)cc1 [I-212] | 70 to 90 | 10 to 100 | C (C (10-100 fold)) | < 50 | > 100 | > 90 | > 100 | – | – | – |
| C#Cc1ccc(CNC(=O)[C@@H]2C[C@@H](O)CN2C(=O)[C@@H](NC(=O)N2CC3(CC(N4C[C@H]5CN(c6cnc(N7CCc8[nH]c9nnc(-c%10ccccc%10O)cc9c8[C@@H]7C)nc6)C[C@H]5C4)C3)C2)C(C)(C)C)cc1 [I-172] | 50 to 70 | 10 to 100 | C (C (10-100 fold)) | 70 to 90 | > 100 | > 90 | > 100 | – | – | – |
| C#Cc1ccc(CNC(=O)[C@@H]2C[C@@H](O)CN2C(=O)[C@@H](NC(=O)[C@H]2CCC3(CC2)C[C@H](N2CCC(c4cnc(N5CCN6c7cc(-c8ccccc8O)nnc7NC[C@H]6C5)nc4)CC2)C3)C(C)(C)C)c(OCCCN(C)C)c1 (single isomer, unassigned) [I-129] | > 90 | 1 to 10 | C (C (10-100 fold)) | > 90 | 10 to 100 | > 90 | 10 to 50 | – | – | – |
| C#Cc1ccc([C@H](C)NC(=O)[C@@H]2C[C@@H](O)CN2C(=O)[C@@H](NC(=O)[C@H]2CCC3(CC2)C[C@H](N2CCN(c4cnc(N5CCN6c7cc(-c8ccccc8O)nnc7NC[C@H]6C5)nc4)CC2)C3)C(C)(C)C)cc1 (single isomer, unassigned) [I-233] | 70 to 90 | 1 to 10 | C (C (10-100 fold)) | 50 to 70 | > 100 | > 90 | 10 to 50 | – | – | – |
| C#Cc1ccc(CNC(=O)[C@@H]2C[C@@H](O)CN2C(=O)[C@@H](NC(=O)N2CC3(CC(N4CCC(c5cnc(N6CCc7[nH]c8nnc(-c9ccccc9O)cc8c7[C@H]6CO)nc5)CC4)C3)C2)C(C)(C)C)c(Cl)c1 [I-318] | 70 to 90 | 1 to 10 | C (C (10-100 fold)) | 70 to 90 | > 100 | > 90 | 10 to 50 | – | – | – |
| C#Cc1ccc(CNC(=O)[C@@H]2C[C@@H](O)CN2C(=O)[C@@H](NC(=O)CCCCCCCN2CCC(N3CC4(CC(N5CCN6c7cc(-c8ccccc8O)nnc7NC[C@H]6C5)C4)C3)CC2)C(C)(C)C)cc1 [I-243] | 70 to 90 | 1 to 10 | B (B (>100-500 fold)) | < 50 | > 100 | > 90 | 50 to 100 | – | – | – |
| C#Cc1ccc(CNC(=O)[C@@H]2C[C@@H](O)CN2C(=O)[C@H](NC(=O)[C@H]2CCC3(CC2)C[C@H](N2CCN(c4cnc(N5CCN6c7cc(-c8ccccc8O)nnc7NC[C@H]6C5)nc4)CC2)C3)C(C)(C)CCO)c(Cl)c1 (single isomer, unassigned) [I-306] | < 50 | > 100 | D (D (<10 fold)) | < 50 | > 100 | < 50 | > 100 | – | – | – |
| C#Cc1ccc([C@H](C)NC(=O)[C@@H]2C[C@@H](O)CN2C(=O)[C@H](c2cc(OCCN3CCN4c5cc(-c6ccccc6O)nnc5NC[C@H]4C3)no2)C(C)C)cc1 (single isomer, unassigned) [I-272] | 50 to 70 | > 100 | C (C (10-100 fold)) | < 50 | > 100 | 50 to 70 | > 100 | – | – | – |
| CC#Cc1ccc(CNC(=O)[C@@H]2C[C@@H](O)CN2C(=O)[C@@H](NC(=O)[C@H]2CCC3(CC2)C[C@H](N2CCC(c4cnc(N5CCN6c7cc(-c8ccccc8O)nnc7NC[C@H]6C5)nc4)CC2)C3)C(C)(C)C)cc1 (single isomer, unassigned) [I-103] | 50 to 70 | 1 to 10 | C (C (10-100 fold)) | 70 to 90 | > 100 | > 90 | 50 to 100 | – | – | – |
